{"source": "paper PMC12396409", "about": "“Screening and hit evaluation of a microbial metabolite library against the pathogenic Plasmodium falciparum and Toxoplasma gondii parasites” (International Journal for Parasitology: Drugs and Drug …, 2025)", "key": {"[1]": {"test_system": "P. falciparum 3D7 parasites", "assay": "P. falciparum growth inhibition assay, 1-cycle (72 h treatment), SYBR DNA staining (library screen at 2 μg/mL and dose-response)", "type": "cell-based, Plasmodium falciparum", "settings": "for activity at 2 µg/mL: Plasmodium falciparum"}, "[2]": {"test_system": "P. falciparum 3D7 parasites", "assay": "P. falciparum growth inhibition assay, 2-cycle (120 h treatment), delayed-death screen and dose-response", "type": "cell-based, Plasmodium falciparum", "settings": "for activity at 2 µg/mL: Plasmodium falciparum"}, "[3]": {"test_system": "T. gondii RH strain (RH-Tub-eYFP) tachyzoites", "assay": "microbe, parasite or virus in culture", "type": "cell-based, Toxoplasma gondii", "settings": "72 h; for percent parasite growth at 2 µg/mL: Toxoplasma gondii"}, "[4]": {"settings": "P. falciparum 3D7, 72 h, parasite screen at 2 μg/mL, % growth, replicate 1"}, "[5]": {"settings": "P. falciparum 3D7, 72 h, parasite screen at 2 μg/mL, % growth, replicate 2"}, "[6]": {"settings": "P. falciparum 3D7, 120 h, parasite screen at 2 μg/mL, % growth, replicate 1"}, "[7]": {"settings": "P. falciparum 3D7, 120 h, parasite screen at 2 μg/mL, % growth, replicate 2"}, "[8]": {"settings": "T. gondii, parasite screen at 2 μg/mL, % growth, replicate 1"}, "[9]": {"settings": "T. gondii, parasite screen at 2 μg/mL, % growth, replicate 2"}, "[10]": {"settings": "P. falciparum, 72 h, screen at 2 μg/mL, replicate 1"}, "[11]": {"settings": "P. falciparum, 72 h, screen at 2 μg/mL, replicate 2"}, "[12]": {"settings": "P. falciparum, 120 h, screen at 2 μg/mL, replicate 1"}, "[13]": {"settings": "P. falciparum, 120 h, screen at 2 μg/mL, replicate 2"}, "[14]": {"settings": "T. gondii, screen at 2 μg/mL, replicate 1"}, "[15]": {"settings": "T. gondii, screen at 2 μg/mL, replicate 2"}}, "note": "Like-named read-outs stand apart in the source and are kept apart here.", "data": [{"compound": "Cc1cc(O)cc(O)c1C(=O)O", "note": "[BIA-O1657]", "values": [{"measurement": "Pf_72h_%Growth_Rep1", "setting": "[1]; [4]", "value": 83.41, "unit": "%"}, {"measurement": "Pf_72h_%Growth_Rep2", "setting": "[1]; [5]", "value": 79.75, "unit": "%"}, {"measurement": "Pf_120h_%Growth_Rep1", "setting": "[2]; [6]", "value": 95.39, "unit": "%"}, {"measurement": "Pf_120h_%Growth_Rep2", "setting": "[2]; [7]", "value": 131.31, "unit": "%"}, {"measurement": "Tg_72h_%Growth_Rep1", "setting": "[3]; [8]", "value": 114.94, "unit": "%"}, {"measurement": "Tg_72h_%Growth_Rep2", "setting": "[3]; [9]", "value": 95.01, "unit": "%"}]}, {"compound": "CO[C@H]1/C=C\\C=C(\\C)C[C@H](C)[C@H](O)[C@H](C)/C=C(C)\\C=C(\\C)C(=O)O[C@@H]1[C@@H](C)[C@@H](O)[C@H](C)[C@@]1(O)C[C@@H](OC(=O)/C=C/C(=O)O)[C@H](C)[C@@H](C(C)C)O1", "note": "[TS 155-2]", "values": [{"measurement": "Pf_72h_%Growth_Rep1", "setting": "[1]; [10]", "value": 3.32, "unit": "%"}, {"measurement": "Pf_72h_%Growth_Rep2", "setting": "[1]; [11]", "value": -2.51, "unit": "%"}, {"measurement": "Pf_120h_%Growth_Rep1", "setting": "[2]; [12]", "value": 23.01, "unit": "%"}, {"measurement": "Pf_120h_%Growth_Rep2", "setting": "[2]; [13]", "value": 6.11, "unit": "%"}, {"measurement": "Tg_72h_%Growth_Rep1", "setting": "[3]; [14]", "value": 1.68, "unit": "%"}, {"measurement": "Tg_72h_%Growth_Rep2", "setting": "[3]; [15]", "value": -0.35, "unit": "%"}]}, {"compound": "CCCCC[C@@H](O)[C@H]1C(=O)O[C@H](C)[C@@H](O)/C=C/C=C/C=C/C=C/C=C(\\C)[C@@H](O)C[C@H](O)C[C@H](O)C[C@H](O)C[C@H](O)C[C@H](O)C[C@@H]1O", "note": "[Filipin III]", "values": [{"measurement": "activity at 2 µg/mL", "setting": "[1]; 3D7, 72 h, library screen at 2 μg/mL, 72 h, % growth, replicate 1, read-out: Pf_72h_%Growth_Rep1", "value": 83.6, "unit": "%"}, {"measurement": "activity at 2 µg/mL", "setting": "[1]; 3D7, 72 h, library screen at 2 μg/mL, 72 h, % growth, replicate 2, read-out: Pf_72h_%Growth_Rep2", "value": 89.2, "unit": "%"}, {"measurement": "activity at 2 µg/mL", "setting": "[2]; 3D7, 120 h, library screen at 2 μg/mL, 120 h, % growth, replicate 1, read-out: Pf_120h_%Growth_Rep1", "value": 97.4, "unit": "%"}, {"measurement": "activity at 2 µg/mL", "setting": "[2]; 3D7, 120 h, library screen at 2 μg/mL, 120 h, % growth, replicate 2, read-out: Pf_120h_%Growth_Rep2", "value": 99.7, "unit": "%"}, {"measurement": "percent parasite growth at 2 µg/mL", "setting": "[3]; library screen at 2 μg/mL, % growth, replicate 1, read-out: Tg_72h_%Growth_Rep1", "value": 120, "unit": "%"}, {"measurement": "percent parasite growth at 2 µg/mL", "setting": "[3]; library screen at 2 μg/mL, % growth, replicate 2, read-out: Tg_72h_%Growth_Rep2", "value": 104, "unit": "%"}]}, {"compound": "O=c1c(-c2ccc(O)cc2)coc2cc(O)ccc12", "note": "[Daidzein]", "values": [{"measurement": "activity at 2 µg/mL", "setting": "[1]; 3D7, P. falciparum, 72 h, screen at 2 μg/mL, replicate 1, read-out: Pf_72h_%Growth_Rep1", "value": 83.8, "unit": "%"}, {"measurement": "activity at 2 µg/mL", "setting": "[1]; 3D7, P. falciparum, 72 h, screen at 2 μg/mL, replicate 2, read-out: Pf_72h_%Growth_Rep2", "value": 88.8, "unit": "%"}, {"measurement": "activity at 2 µg/mL", "setting": "[2]; 3D7, P. falciparum, 120 h, screen at 2 μg/mL, replicate 1, read-out: Pf_120h_%Growth_Rep1", "value": 103, "unit": "%"}, {"measurement": "activity at 2 µg/mL", "setting": "[2]; 3D7, P. falciparum, 120 h, screen at 2 μg/mL, replicate 2, read-out: Pf_120h_%Growth_Rep2", "value": 95.5, "unit": "%"}, {"measurement": "percent parasite growth at 2 µg/mL", "setting": "[3]; T. gondii, screen at 2 μg/mL, replicate 1, read-out: Tg_72h_%Growth_Rep1", "value": 125, "unit": "%"}, {"measurement": "percent parasite growth at 2 µg/mL", "setting": "[3]; T. gondii, screen at 2 μg/mL, replicate 2, read-out: Tg_72h_%Growth_Rep2", "value": 97, "unit": "%"}]}, {"compound": "CC[C@@H](C(=O)[C@@H](C)[C@@H](O)[C@H](C)[C@@H]1O[C@@H]([C@@H](CC)C(=O)O)CC[C@@H]1C)[C@H]1O[C@]2(C=C[C@@H](O)[C@]3(CC[C@@](C)([C@H]4CC[C@](O)(CC)[C@H](C)O4)O3)O2)[C@H](C)C[C@@H]1C", "note": "[Salinomycin]", "values": [{"measurement": "Pf_72h_%Growth_Rep2", "setting": "[1]; P. falciparum, 72 h, parasite screen 2 μg/mL, % growth, replicate 2", "value": -1.92, "unit": "%"}, {"measurement": "activity at 2 µg/mL", "setting": "[1]; 3D7, 72 h, P. falciparum, 72 h, parasite screen 2 μg/mL, % growth, replicate 1, read-out: Pf_72h_%Growth_Rep1", "value": 3.76, "unit": "%"}, {"measurement": "Pf_120h_%Growth_Rep2", "setting": "[2]; P. falciparum, 120 h, parasite screen 2 μg/mL, % growth, replicate 2", "value": 1.02, "unit": "%"}, {"measurement": "activity at 2 µg/mL", "setting": "[2]; 3D7, 120 h, P. falciparum, 120 h, parasite screen 2 μg/mL, % growth, replicate 1, read-out: Pf_120h_%Growth_Rep1", "value": 13.6, "unit": "%"}, {"measurement": "Tg_72h_%Growth_Rep2", "setting": "[3]; T. gondii, parasite screen 2 μg/mL, % growth, replicate 2", "value": 0.21, "unit": "%"}, {"measurement": "percent parasite growth at 2 µg/mL", "setting": "[3]; T. gondii, parasite screen 2 μg/mL, % growth, replicate 1, read-out: Tg_72h_%Growth_Rep1", "value": 2.46, "unit": "%"}]}, {"compound": "CC(C)=CC1CC(C)C2(CCC3(C)CC4C(C(=O)CC4(C)O)C(C=O)=CCC32)O1", "note": "(stereo not drawn) [BIA-O1063]", "values": [{"measurement": "Pf_72h_%Growth_Rep1", "setting": "[1]; [4]", "value": 4.64, "unit": "%"}, {"measurement": "Pf_72h_%Growth_Rep2", "setting": "[1]; [5]", "value": 5.89, "unit": "%"}, {"measurement": "Pf_120h_%Growth_Rep1", "setting": "[2]; [6]", "value": 10.48, "unit": "%"}, {"measurement": "Pf_120h_%Growth_Rep2", "setting": "[2]; [7]", "value": 11.00, "unit": "%"}, {"measurement": "Tg_72h_%Growth_Rep1", "setting": "[3]; [8]", "value": 5.87, "unit": "%"}, {"measurement": "Tg_72h_%Growth_Rep2", "setting": "[3]; [9]", "value": 0.78, "unit": "%"}]}, {"compound": "CCC1C=C(C)CC(C)CC(OC)C2OC(O)(C(=O)C(=O)N3CCCCC3C(=O)OC(C(C)=CC3CCC(Cl)C(OC)C3)C(C)C(O)CC1=O)C(C)CC2OC", "note": "(stereo not drawn) [BIA-P1385]", "values": [{"measurement": "Pf_72h_%Growth_Rep1", "setting": "[1]; [4]", "value": 6.43, "unit": "%"}, {"measurement": "Pf_72h_%Growth_Rep2", "setting": "[1]; [5]", "value": 7.66, "unit": "%"}, {"measurement": "Pf_120h_%Growth_Rep1", "setting": "[2]; [6]", "value": 11.40, "unit": "%"}, {"measurement": "Pf_120h_%Growth_Rep2", "setting": "[2]; [7]", "value": 13.77, "unit": "%"}, {"measurement": "Tg_72h_%Growth_Rep1", "setting": "[3]; [8]", "value": 65.99, "unit": "%"}, {"measurement": "Tg_72h_%Growth_Rep2", "setting": "[3]; [9]", "value": 84.21, "unit": "%"}]}, {"compound": "CC(=O)C1=C(O)C=C2Oc3c(C(N)=O)c(O)cc(O)c3[C@]2(C)C1=O", "note": "[Cercosporamide]", "values": [{"measurement": "Pf_72h_%Growth_Rep1", "setting": "[1]; [10]", "value": 93.73, "unit": "%"}, {"measurement": "Pf_72h_%Growth_Rep2", "setting": "[1]; [11]", "value": 83.00, "unit": "%"}, {"measurement": "Pf_120h_%Growth_Rep1", "setting": "[2]; [12]", "value": 127.36, "unit": "%"}, {"measurement": "Pf_120h_%Growth_Rep2", "setting": "[2]; [13]", "value": 89.41, "unit": "%"}, {"measurement": "Tg_72h_%Growth_Rep1", "setting": "[3]; [14]", "value": 84.28, "unit": "%"}, {"measurement": "Tg_72h_%Growth_Rep2", "setting": "[3]; [15]", "value": 89.90, "unit": "%"}]}]}
